The text below walks through data of patent US20140314746A1, “METHODS FOR TREATING OR PREVENTING FIBROSIS IN SUBJECTS AFFLICTED WITH SCLERODERMA” (Philadelphia Health and Education Corporation, d/b/a Drexel …, priority 2013, published 2014).

The test system of one series is SSc fibroblasts. Description: Hydroxyproline secretion by SSc fibroblasts treated with glyburide or parthenolide. The conditions noted are these: 100 μM glyburide or 10 μM parthenolide; media of 24 h and further 24 h.
The next series has as its system interleukin-1β. The note with it: cited from earlier work.
The subject of the next series is fibroblasts. In kind it is cell-based. The procedure: (§1) Normal human dermal fibroblasts (n=4) were purchased from the Coriell Institute (Camden, N.J.) and normal lung fibroblasts (n=3) were obtained from the University of Pittsburgh. Normal and SSc dermal fibroblasts (750,000 cells/dish) were cultured in DMEM (Mediatech Inc., Manassas Va.) supplemented with 10% FBS (Mediatech) and 1% penicillin/streptomycin (Mediatech). Protein lysates were collected for western blotting and media was collected for ELISA and hydroxyproline assays. SSc fibroblasts were treated with 20 μM caspase-1 inhibitor, Benzyloxycarbonyl-Tyr-Val-Ala-Asp(OMe)-fluoromethylketone (Z-YVAD(OMe)-FMK; Enzo Life Sciences, Plymouth Meeting Pa.) for 48 h. Fibroblasts from NLRP3−/−, and ASC−/− and C57BL/6 mice (Jackson Laboratories, Bar Harbor Me.) were established from skin and were treated with 1 μM bleomycin and 20 μM Z-YVAD(OMe)-FMK for 48 h.

For series [1], the system named is SSc dermal fibroblasts. Description: IL-1β secretion by SSc dermal fibroblasts (ELISA of media). In kind it is cell-based, human. The conditions noted are these: SSc dermal fibroblasts (n=4), 20 μM inhibitor, 48 h, untreated 41.1±5.6. The procedure: as §1
(§2) Media from SSc and normal fibroblasts were assayed by ELISA for IL-1β (Thermo Scientific, Rockford Ill.) and IL-18 (MBL, Woburn Mass.) according to the manufacturer's recommendations. […] The sensitivity of the IL-1β ELISA was 2.6 pg/ml and the sensitivity of the IL-18 was 12 pg/ml.
(§3) 80% confluent fibroblasts were cultured in serum free Opti-MEM and transfected with siRNA targeting caspase-1 (Santa Cruz) for 48 h, with an additional transfection of the siRNA duplex after 24 h. […]
(In an ELISA, binding on a coated surface is turned into a signal by an enzyme label.)

The subject of series [2] is SSc dermal fibroblasts. Nature of the series: Hydroxyproline (total collagen) secretion by SSc dermal fibroblasts. It counts as cell-based, human. The note with it: 20 μM inhibitor, 48 h, untreated 18.73±2.33. The procedure: as §1
(§4) Total collagen secreted into media was measured by hydroxyproline (Woessner, 1961, Arch Biochem Biophys 93:440-7). Absorbances were read in a spectrophotometer at 550 nm and the concentration of hydroxyproline was determined against a standard curve of hydroxyproline.
as §3

Series [3] has as its system SSc lung fibroblasts. Nature of the series: IL-1β secretion by SSc lung fibroblasts (ELISA of media). The conditions noted are these: SSc lung fibroblasts (n=3), 20 μM inhibitor, 48 h; untreated 19.7±0.4. In kind it is cell-based, human. The procedure:
as §1, §2

The subject of series [4] is SSc lung fibroblasts. Nature of the series: Hydroxyproline (total collagen) secretion by SSc lung fibroblasts. In kind it is cell-based, human. The conditions noted are these: 20 μM inhibitor, 48 h, untreated 216.1±18.5. The procedure: as §1, §4
The subject of series [5] is SSc lung fibroblasts. Nature of the series: IL-18 secretion by SSc lung fibroblasts (ELISA of media). It counts as cell-based, human. The note with it: SSc lung fibroblasts (n=3), 20 μM inhibitor, 48 h; untreated 743.9±6.4. The procedure: as §1, §2
For series [6], the system named is SSc dermal myofibroblasts. Description: Immunofluorescence of α-SMA and f-actin in SSc dermal myofibroblasts. In kind it is cell-based, human. The note with it: 48 h. The procedure:
SSc dermal fibroblasts were cultured in chamber slides to 80% confluency and treated with Z-YVAD(OMe)-FMK for 48 h, air dried then fixed with 4% paraformaldehyde for 20 min. Slides were washed with 1×PBS and blocked with 5% goat serum. Primary antibody to α-SMA (1:100, Clone #1A4, Abcam, Cambridge Mass.) and applied to the cells for 40 min, then washed in PBS. Cy2-conjugated goat-anti-mouse (1:200, Jackson ImmunoResearch, West Grove Pa.) was applied to the cells for 40 min, and then washed. Rhodamine phalloidin (1:100, Cytoskeleton, Denver Colo.) was applied to the cells for 15 min, then the cells were washed with PBS, counterstained with DaPI (Invitrogen), visualized with a Nikon Eclipse 80i epi-fluorescent microscope, and photographed at 400× magnification. All images (red for f-actin, green for α-SMA, and triple for simultaneous detection of f-actin, α-SMA and nuclei) were captured at 6 sec, Gain=2, Gamma=0.5.

The subject of series [7] is SSc dermal fibroblasts. Nature of the series: Western blot of α-SMA in SSc dermal fibroblasts. It counts as cell-based, human. The conditions noted are these: 48 h. The procedure: 30 μl of media was size fractionated on a 5% SDS polyacrylamide gel (Invitrogen, Carlsbad Calif.) and the proteins transferred to a PVDF membrane (Invitrogen). Non-specific binding sites were blocked and then probed with rabbit-anti-human COL1A1, COL3A1, or α-SMA (Santa Cruz Biotechnologies, Santa Cruz Calif.) overnight at 4° C. The membrane was washed and incubated with goat anti-rabbit-HRP (1:5000) (Jackson Immunoresearch, West Grove Pa.). The HRP signal was developed with SuperSignal Chemiluminescent Substrate (Pierce). The intensity of the bands was measured by ImageJ (http://rsbweb dot nih dot gov/ij/).
80% confluent fibroblasts were cultured in serum free Opti-MEM and transfected with siRNA targeting caspase-1 (Santa Cruz) for 48 h, with an additional transfection of the siRNA duplex after 24 h. Cells were harvested for protein for Western blotting and the media was saved for hydroxyproline and IL-1β and IL-18 measurements and cells were lysed for α-SMA detection.
A general note: A western blot detects proteins with antibodies after separation by electrophoresis.

The test system of the next series is mouse dermal fibroblasts. Description: Hydroxyproline secretion by mouse dermal fibroblasts stimulated with bleomycin. In kind it is cell-based. The note with it: for hydroxyproline secreted: 48 h. As for the experimental part: as §1, §4
For series [8], the system named is SSc lung fibroblasts. Nature of the series: Western blot of secreted COL1A1 and COL3A1, SSc lung fibroblasts. In kind it is cell-based, human. The conditions noted are these: 48 h. As for the experimental part: as §1
(§5) 30 μl of media was size fractionated on a 5% SDS polyacrylamide gel (Invitrogen, Carlsbad Calif.) and the proteins transferred to a PVDF membrane (Invitrogen). Non-specific binding sites were blocked and then probed with rabbit-anti-human COL1A1, COL3A1, or α-SMA (Santa Cruz Biotechnologies, Santa Cruz Calif.) overnight at 4° C. The membrane was washed and incubated with goat anti-rabbit-HRP (1:5000) (Jackson Immunoresearch, West Grove Pa.). […] The intensity of the bands was measured by ImageJ (http://rsbweb dot nih dot gov/ij/).

The test system of series [9] is SSc dermal fibroblasts. Nature of the series: Western blot of secreted COL1A1 and COL3A1, SSc dermal fibroblasts. It counts as cell-based, human. The note with it: 48 h. As for the experimental part: as §1, §5
Series [10] deals with SSc dermal fibroblasts. Description: IL-18 secretion by SSc dermal fibroblasts (ELISA of media). It counts as cell-based, human. The note with it: SSc dermal fibroblasts (n=4), 20 μM inhibitor, 48 h; untreated 23.9±1.0. As for the experimental part:
as §1, §2, §3

For series [11], the system named is other members of the interleukin-1 family, including interleukin-1 alpha. The note with it: cited from earlier work.
Series [12] relates to mouse models of acute gout. The note with it: in vivo; cited from earlier work.
The test system of series [13] is C57Bl/6, NLRP3−/− and ASC−/− mice. Nature of the series: Murine bleomycin-induced model of fibrosis (skin thickness, lung pathology). It counts as in vivo, mouse. The procedure:
All animals were housed in the University Laboratory Animal facility and fed ad libitum. Pathogen free C57Bl/6 mice (n=7) were purchased from Jackson Laboratories. […] Seven untreated C57BL/6 mice were assessed for skin thickness and lung pathology. Dermal fibrosis was induced by daily subcutaneous administration of 100 μl of a 1 mg/ml of bleomycin (BioMol, Plymouth Meeting Pa.) in the flank for 28 days. At the same time 100 μl sterile PBS was administered by subcutaneous injection in the contralateral flank of the same mouse according to the method of Yamamoto et al. (Yamamoto et al., 1999, J Invest Dermatol 112:456-62). Mice were euthanized and tissue from both injection sites was harvested, along with lung tissue. Tissues were fixed, embedded in paraffin, and sectioned onto positively charged slides, then stained with Masson's Trichrome and photographed. Collagen was measured in the skin from just below the epidermis to the fat layer. Two images were taken at 100× magnification. Six measurements were taken for each image using the Advanced SpotCam software and expressed as skin thickness in microns±SEM and fold change in skin thickness.

Description for SSc fibroblasts: SSc fibroblasts were cultured in 5 ml of media with 100 μM glyburide (G) or 10 μM parthenolide (P). After 24 h the media was collected and the fibroblasts given an additional 5 ml of media with 100 μM glyburide or 10 μM parthenolide and cultured for a further 24 h. Media from both time points was assayed for hydroxyproline. Three independent experiments were performed in and assayed in triplicate. Data is presented as means±SEM. G=glyburide, P=parthenolide.
SSc fibroblasts were treated for 24 h with 100 μM Glyburide or 10 μM Parthenolide. The media was replaced with fresh after 24 h with 100 μM Glyburide or 10 μM Parthenolide and cultured for an additional 24 h. The culture media was assayed for hydroxyproline.

Regarding `COc1ccc(Cl)cc1C(=O)NCCc1ccc(S(=O)(=O)NC(=O)NC2CCCCC2)cc1` [Glyburide, 5-chloro-N-(4-[N-(cyclohexylcarbamoyl)sulfamoyl]phenethyl)-2-methoxybenzamide], the “hydroxyproline secretion by SSc fibroblasts” value with SSc fibroblasts is given as “significantly reduce”.

In the case of `CSc1ccc(-c2nn(Cc3ccccc3)c(=O)cc2-c2ccc(Cl)cc2)cc1` [K-832, 2-benzyl-5-(4-chlorophenyl)-6-[4-(methylthio)phenyl]-2H-pyridazin-3-one], in the series with interleukin-1β, the “inhibitory activity against production of interleukin-1β” value is “high inhibitory activity”.

With `COC(=O)C[C@H](NC(=O)[C@H](C)NC(=O)[C@@H](NC(=O)[C@H](Cc1ccc(O)cc1)NC(=O)OCc1ccccc1)C(C)C)C(=O)CF` [Z-YVAD(OMe)-FMK, Benzyloxycarbonyl-Tyr-Val-Ala-Asp(OMe)-fluoromethylketone], the “apoptosis” value with fibroblasts is recorded as “did not interfere with cell proliferation or induce apoptosis”. In addition, the IL-1β secreted was found to be 12.0 ± 1.6 pg/mL with SSc dermal fibroblasts [1], 12.0 pg/mL in the series with SSc dermal fibroblasts [1] (listed as YVAD) and 7.2 ± 0.2 pg/mL in the series with SSc lung fibroblasts [3]. Also, the hydroxyproline secreted with SSc dermal fibroblasts [2] was 5.19 ± 0.94 µg/mL; in the series with SSc lung fibroblasts [4] it was 132.0 ± 22.8 µg/mL; with mouse dermal fibroblasts (C57BL/6 fibroblasts, 1 μM bleomycin plus 20 μM inhibitor) it was 5.9 ± 0.7 µg/mL. Also, the IL-18 secreted in the series on SSc lung fibroblasts [5] came to 311.6 ± 18.5 pg/mL; with SSc dermal fibroblasts [10], 15.2 ± 1.5 pg/mL. Further, in [6] (SSc dermal cells, untreated 37.8±3.09), the “F-actin MFI” value is 39.6±2.9 MFI. Moreover, in series [6] (SSc dermal myofibroblasts), the “F-actin staining” value is given as “unaffected”. Moreover, the “Mean fluorescent intensity (MFI) of α-SMA after correction for f-actin MFI” value in [6] (SSc dermal myofibroblasts, untreated 1.03±0.05) was determined as 0.68±0.04. Besides, the “Mean fluorescent intensity of α-SMA” value in series [6] (SSc dermal myofibroblasts, untreated 38.9±2.4) came out at 27.6±2.5. The “Decrease of α-smooth muscle actin by Western” value with SSc dermal fibroblasts [7] (after normalization for β-actin) is recorded as “approximately 50%”. Also, in the series with SSc dermal fibroblasts [7] (untreated 1.07±0.15), the “α-SMA protein by Western, normalized for β-actin loading” value was 0.54±0.14. In addition, the “COL1A1 secretion” value with SSc lung fibroblasts [8] (p=0.051) is recorded as “trend for the reduction”. The “COL3A1 protein (densitometry)” value amounted to 5.5±1.2 AU with SSc lung fibroblasts [8] (untreated 12.3±3.8 AU) and 8.6±2.5 AU with SSc dermal fibroblasts [9] (untreated 14.7±3.1 AU). Also, the “Secreted COL1A1 protein (densitometry)” value in the series with SSc dermal fibroblasts [9] (untreated 11.4±1.3 AU) was found to be 8.9±1.0 AU.

In the case of “Canakinumab: a human monoclonal antibody targeted at interleukin-1 beta”, the “cross-reactivity with other members of the interleukin-1 family” value in [11] is on record as “no cross-reactivity”.

Consider “XOMA-052: a potent anti-IL-1β humanized neutralizing antibody”, for which, in series [12], the “activity in mouse models of acute gout” value is listed as “active”.

bleomycin: the “fold induction of skin thickness” value in series [13] (ASC−/− mice, bleomycin vs PBS injected skin) amounted to 1.06 fold; in series [13] (NLRP3−/− mice, bleomycin vs PBS injected skin) it was 1.10 fold. In [13] (C57Bl/6 mice, bleomycin 100 μg daily s.c. 28 days, PBS injected skin 320.7±40.6), this molecule had an average skin thickness of 504.4±66.7 microns. Besides, the “fold increase in skin thickness” value in series [13] (C57Bl/6 mice, bleomycin vs PBS injected skin) is 1.54±0.11 fold. For the same molecule, the “lung pathology” value in series [13] (wild-type C57Bl/6 mice, bleomycin s.c. 28 days) is given as “developed extensive pulmonary fibrosis”. For the same molecule, in the series with mouse dermal fibroblasts (ASC−/− and NLRP3−/− fibroblasts, 1 μM bleomycin, p>0.43), the “hydroxyproline secretion” value was “not induced”. Also, the hydroxyproline secreted in the series with mouse dermal fibroblasts (C57BL/6 fibroblasts stimulated with 1 μM bleomycin, unstimulated 10.6±3.8) is 42.8 ± 2.9 µg/mL.
